18 compounds from ChEMBL document CHEMBL1133826, “Design, synthesis, and biological activity of diiminoisoindolines as complement component 3a antagonists” (Bioorg Med Chem Lett, 2001) can be followed below.

Test [1] deals with T1, C3a anaphylatoxin chemotactic receptor (Homo sapiens, UniProt Q16581).
T1 sequence (Q16581 whole entry): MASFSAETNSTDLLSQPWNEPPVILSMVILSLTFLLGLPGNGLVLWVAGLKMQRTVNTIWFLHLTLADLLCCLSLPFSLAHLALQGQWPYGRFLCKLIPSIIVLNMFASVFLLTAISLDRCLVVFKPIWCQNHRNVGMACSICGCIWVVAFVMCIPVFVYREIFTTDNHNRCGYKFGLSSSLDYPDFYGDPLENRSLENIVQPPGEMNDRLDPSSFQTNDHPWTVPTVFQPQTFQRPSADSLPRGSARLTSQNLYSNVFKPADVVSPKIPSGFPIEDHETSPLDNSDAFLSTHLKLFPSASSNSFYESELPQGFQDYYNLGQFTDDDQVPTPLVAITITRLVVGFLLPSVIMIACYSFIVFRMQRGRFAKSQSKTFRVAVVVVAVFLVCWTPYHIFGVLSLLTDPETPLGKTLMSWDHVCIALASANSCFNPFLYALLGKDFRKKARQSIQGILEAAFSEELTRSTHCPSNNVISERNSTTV
In words: Concentration required to inhibit complement component 3a (C3a) binding to C3a receptor in human neutrophil based assay; Not active at 25 uM.

Test [2] addresses T1, C3a anaphylatoxin chemotactic receptor. The experiment in a line: Inhibition of complement component 3a (C3a) binding to C3a receptor in human neutrophil based assay.
The species named for test [3] is Homo sapiens. In words: Inhibitory concentration against C3a receptor induced chemotaxis in human eosinophils. In kind it is functional, organism-based.
For test [4], the species on record is Homo sapiens. The experiment in a line: Concentration required for 50% inhibition of binding against C3a receptor induced calcium mobilization in human neutrophil. In kind it is functional, organism-based. In general terms: Calcium assays in cells follow changes in intracellular calcium, usually with a dye or a luminescent sensor.
For test [5], the system named is Rattus norvegicus. In words: Percent inhibition against C3a receptor induced wheal formation in rat at the dose of 30 mg/Kg administered orally.
In test [6] the test system is Rattus norvegicus. The experiment in a line: Percent inhibition against C3a receptor induced wheal formation in rat at the dose of 30 mg/Kg administered intraperitoneally.
The species entered for test [7] is Homo sapiens. The experiment in a line: Percent inhibition against C3a receptor induced calcium mobilization in human neutrophil at the dose of 25 uM. Format: functional.
For test [8], the system named is Rattus norvegicus. In words: Percent inhibition against C3a receptor induced wheal formation in rat at the dose of 15 mg/Kg administered orally.
Test [9] is filed under the species Homo sapiens. In words: Inhibitory concentration against C3a receptor induced chemotaxis in human eosinophils; Not active at 25 uM. Format: functional, organism-based.
For test [10], the species on record is Homo sapiens. In words: Percent inhibition against C3a receptor induced chemotaxis in human eosinophils at the dose of 25 uM. Format: functional.

A word on the IC50: it is the concentration at which inhibition is half-maximal. As to `CC(C)/N=C1\N=C(NC(C)C)c2ccccc21`, in test [1], the IC50 result was “Not Active”.
Take `Cc1ccc(CC/N=C2\N=C(NCCc3ccc(C)cc3)c3cc(Cl)c(Cl)cc32)cc1`: the IC50 in test [2] was found to be 48 µM.
As usually defined, the inhibition is the change of the read-out against control, counted positive when it falls. Regarding `Cc1ccc(CC/N=C2\N=C(NCCc3ccc(C)cc3)c3ccccc32)cc1`, the IC50 in test [2] was 6.14 µM; in the test filed under Homo sapiens [3] it was 6.5 µM; in the test filed under Homo sapiens [4], 3.3 µM. In addition, the inhibition in the test on Rattus norvegicus [5] was 67%; in the test with Rattus norvegicus [6], 38%.
On to `CCCOc1ccc2c(c1)/C(=N/CCc1ccc(F)cc1)N=C2NCCc1ccc(F)cc1`, for which the IC50 is 5.97 µM in test [2] and 6.1 µM in the test filed under Homo sapiens [3]. The inhibition at 25 µM in the test listed under Homo sapiens [7] was 79%.
Turning to `N=C1N=C(NCCc2ccc(Cl)cc2)c2ccccc21`, the IC50 result in test [1] is listed as “Not Active”.
On to `Cc1ccc(C/N=C2\N=C(NCc3ccc(C)cc3)c3ccccc32)cc1`, for which the IC50 in test [2] turned out to be 1.7 µM; in the test filed under Homo sapiens [4], 2 µM. Further, the inhibition amounted to 30% with Rattus norvegicus [8], 61% in the test with Rattus norvegicus [5] and 64% in the test with Rattus norvegicus [6].
For the compound `CC(=O)Nc1ccc2c(c1)/C(=N\Cc1ccc(C)cc1)N=C2NCc1ccc(C)cc1`, in test [2], the IC50 is 32 µM.
As for `Fc1ccc(CC/N=C2\N=C(NCCc3ccc(F)cc3)c3ccccc32)cc1`, the results for the IC50 (in test [2]; in the test listed under Homo sapiens [3]; in the test filed under Homo sapiens [4]) were 11.4 µM, 6.5 µM and 3.1 µM, respectively. The inhibition with Rattus norvegicus [8] is 44%; in the test with Rattus norvegicus [5], 72%; in the test with Rattus norvegicus [6], 73%.
`Clc1cccc(CC/N=C2\N=C(NCCc3cccc(Cl)c3)c3ccccc32)c1`: the IC50 in test [2] was 7.48 µM; in the test listed under Homo sapiens [9], “Not Active”; in the test filed under Homo sapiens [4], 5.4 µM. The figures for the inhibition with Rattus norvegicus [8], in the test on Rattus norvegicus [5] and in the test with Rattus norvegicus [6] were 28%, 55% and 72%, respectively.
For the compound `Clc1ccc(CC/N=C2\N=C(NCCc3ccc(Cl)cc3)c3ccccc32)cc1`, the figures for the IC50 (in [2]; in the test listed under Homo sapiens [3]; in the test listed under Homo sapiens [4]) were 7.16 µM, 10.2 µM and 8.2 µM, respectively. Besides, the inhibition was found to be 63% in the test with Rattus norvegicus [5] and 26% in the test on Rattus norvegicus [6].
`CC(C/N=C1\N=C(NCC(C)c2ccc(Cl)cc2)c2ccccc21)c1ccc(Cl)cc1` (stereo unspecified) gave an IC50 in test [2] of 5.9 µM. Besides, the inhibition at 25 µM in the test filed under Homo sapiens [7] is 69%.
For the compound `Fc1ccc(CC/N=C2\N=C(NCCc3ccc(F)cc3)c3nccnc32)cc1`, the IC50 entry in [1] is “Not Active”.
`Fc1ccc(CC/N=C2\N=C(NCCc3ccc(F)cc3)c3cnccc32)cc1` gave an IC50 in test [2] of 13.4 µM.
On to `CN(C)CCOc1ccc2c(c1)/C(=N/CCc1ccc(F)cc1)N=C2NCCc1ccc(F)cc1`, for which the IC50 in test [2] stood at 5.36 µM; in the test listed under Homo sapiens [3] it was 7.8 µM.
Take `COc1ccc2c(c1)/C(=N/CCc1ccc(C)cc1)N=C2NCCc1ccc(C)cc1`: the figures for the IC50 (in test [2]; in the test listed under Homo sapiens [4]) were 12.6 µM and 3.8 µM, respectively. The compound further showed an inhibition at 25 µM in the test filed under Homo sapiens [10] of 37%.
On to `Cc1ccc(CC/N=C2/CCC(NCCc3ccc(C)cc3)=N2)cc1`, for which the IC50 result in test [1] is recorded as “Not Active”.
`CC(C)NC1=N/C(=N\CCc2ccc(Cl)cc2)c2ccccc21`: in [2], the IC50 turned out to be 8.45 µM.
Consider `Cc1ccc(C/N=C2\N=C(NCc3ccc(C)cc3)c3cc([N+](=O)[O-])ccc32)cc1`, for which, in [1], the IC50 result is “Not Active”.
